Test results as given in US20240158446A1, “CYCLIC COMPOUND HAVING SELECTIVE INHIBITORY ACTION ON KRAS OVER HRAS AND NRAS” (CHUGAI SEIYAKU KABUSHIKI KAISHA, priority 2021, published 2024).
pKd: −log10 of the molar value.

Experiments:
[1] = target: GDP-bound HRAS wild-type protein (Homo sapiens, UniProt P01112); test: Binding to HRAS by surface plasmon resonance (SPR), Single Cycle Kinetics; settings: SPR, GDP-bound HRAS wild-type protein vs GDP-bound KRAS wild-type protein
[2] = target: GDP-bound KRAS wild-type protein (Homo sapiens, UniProt P01116); test: Binding to KRAS by surface plasmon resonance (SPR), Single Cycle Kinetics; settings: SPR, Single Cycle Kinetics, GDP-bound KRAS wild-type protein; read-out: KRAS KD
[3] = target: GDP-bound NRAS wild-type protein (Homo sapiens, UniProt P01111); test: Binding to NRAS by surface plasmon resonance (SPR), Single Cycle Kinetics; settings: SPR, GDP-bound NRAS wild-type protein vs GDP-bound KRAS wild-type protein
Sequence of GDP-bound NRAS wild-type protein (P01111 whole entry): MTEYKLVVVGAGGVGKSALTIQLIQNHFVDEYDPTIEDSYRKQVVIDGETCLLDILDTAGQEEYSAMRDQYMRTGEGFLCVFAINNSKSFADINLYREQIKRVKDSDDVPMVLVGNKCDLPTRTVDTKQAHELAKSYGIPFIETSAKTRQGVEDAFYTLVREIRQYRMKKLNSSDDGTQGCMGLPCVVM

Sequence of GDP-bound HRAS wild-type protein (P01112 whole entry): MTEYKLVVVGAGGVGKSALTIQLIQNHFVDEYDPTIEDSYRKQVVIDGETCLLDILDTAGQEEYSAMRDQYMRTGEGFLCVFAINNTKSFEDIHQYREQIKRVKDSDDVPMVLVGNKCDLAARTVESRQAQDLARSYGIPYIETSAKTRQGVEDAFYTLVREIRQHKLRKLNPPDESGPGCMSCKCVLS
Sequence of GDP-bound KRAS wild-type protein (P01116 whole entry): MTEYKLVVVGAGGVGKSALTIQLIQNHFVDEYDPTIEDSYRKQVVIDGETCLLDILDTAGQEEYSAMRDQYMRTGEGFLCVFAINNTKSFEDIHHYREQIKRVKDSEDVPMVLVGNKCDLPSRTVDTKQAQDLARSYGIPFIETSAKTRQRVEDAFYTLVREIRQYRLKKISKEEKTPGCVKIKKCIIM

SMILES	pKd [2]	HRAS/KRAS (ratio of KD value for HRAS to KD value for KRAS) [1]	NRAS/KRAS (ratio of KD value for NRAS to KD value for KRAS) [3]
CCC[C@H]1C(=O)N[C@@H]([C@@H](C)CC)C(=O)N(C)CC(=O)N(C)[C@H]2C/C=C\CCN(C2=O)[C@@H](Cc2ccc(C)cc2)C(=O)N(C)CC(=O)N[C@@H](CCc2ccc(Cl)c(Cl)c2)C(=O)N2C[C@H](OCC)C[C@H]2C(=O)NC2(CC(C)(C)C2)C(=O)N(C)[C@@H](C(CC)CC)C(=O)N(C)[C@H](C(=O)N(C)C)CC(=O)N1C [PP2184]	9.15	A (a compound having 10 or more and less than 20 is denoted as A)	AA (a compound having 20 or more is denoted as AA)
CCO[C@@H]1C[C@H]2C(=O)NC3(CC(C)(C)C3)C(=O)N(C)[C@@H](C(CC)CC)C(=O)N(C)[C@H](C(=O)N(C)C)CC(=O)N(C)[C@@H](CC(C)C)C(=O)N[C@@H]([C@@H](C)CC)C(=O)N(C)CC(=O)N(C)[C@H]3C/C=C\CCN(C3=O)[C@@H](Cc3ccc(C)cc3)C(=O)N(C)CC(=O)N[C@@H](CCc3ccc(Cl)c(Cl)c3)C(=O)N2C1 [PP2185]	9.15	A (a compound having 10 or more and less than 20 is denoted as A)	AA (a compound having 20 or more is denoted as AA)
CCO[C@@H]1C[C@H]2C(=O)NC3(CC(C)(C)C3)C(=O)N(C)[C@@H](C(CC)CC)C(=O)N(C)[C@H](C(=O)N(C)C)CC(=O)N(C)[C@@H](C)C(=O)N[C@@H]([C@@H](C)CC)C(=O)N(C)CC(=O)N(C)[C@H]3C/C=C\CCN(C3=O)[C@@H](Cc3ccc(C)cc3)C(=O)N(C)CC(=O)N[C@@H](CCc3ccc(Cl)c(Cl)c3)C(=O)N2C1 [PP2186]	8.64	A (a compound having 10 or more and less than 20 is denoted as A)	AA (a compound having 20 or more is denoted as AA)
CCO[C@@H]1C[C@H]2C(=O)NC3(CC(C)(C)C3)C(=O)N(C)[C@@H](C(CC)CC)C(=O)N(C)[C@H](C(=O)N3CCCC3)CC(=O)N(C)[C@@H](C)C(=O)N[C@@H]([C@@H](C)CC)C(=O)N(C)CC(=O)N(C)[C@H]3C/C=C\CCN(C3=O)[C@@H](Cc3ccc(C)cc3)C(=O)N(C)CC(=O)N[C@@H](CCc3ccc(Cl)c(Cl)c3)C(=O)N2C1 [PP2187]	9.16	A (a compound having 10 or more and less than 20 is denoted as A)	AA (a compound having 20 or more is denoted as AA)
CCO[C@@H]1C[C@H]2C(=O)NC3(CC(C)(C)C3)C(=O)N(C)[C@@H](C(CC)CC)C(=O)N(C)[C@H](C(=O)N(C)C)CC(=O)N(C)[C@@H](CC)C(=O)N[C@@H]([C@@H](C)CC)C(=O)N(C)CC(=O)N(C)[C@H]3C/C=C\CCN(C3=O)[C@@H](Cc3ccc(C)cc3)C(=O)N(C)CC(=O)N[C@@H](CCc3ccc(Cl)c(Cl)c3)C(=O)N2C1 [PP2188]	9.15	A (a compound having 10 or more and less than 20 is denoted as A)	AA (a compound having 20 or more is denoted as AA)
CCO[C@@H]1C[C@H]2C(=O)NC3(CCCC3)C(=O)N(C)[C@@H](C3CCCC3)C(=O)N(C)[C@H](C(=O)N(C)C)CC(=O)N(C)[C@@H](CC(C)C)C(=O)N[C@@H]([C@@H](C)CC)C(=O)N(C)CC(=O)N(C)[C@H]3C/C=C\CCN(C3=O)[C@@H](Cc3ccc(C)cc3)C(=O)N(C)CC(=O)N[C@@H](CCc3ccc(C(F)(F)F)c(Cl)c3)C(=O)N2C1 [PP2195]	10.02	A (a compound having 10 or more and less than 20 is denoted as A)	A (a compound having 10 or more and less than 20 is denoted as A)
CCC[C@H]1C(=O)N[C@@H](C2CCCC2)C(=O)N(C)CC(=O)N(C)[C@H]2C/C=C\CCN(C2=O)[C@@H](Cc2ccc(C)cc2)C(=O)N(C)CC(=O)N[C@@H](CCc2ccc(C(F)(F)F)c(Cl)c2)C(=O)N2C[C@H](OCC)C[C@H]2C(=O)NC2(CC(C)(C)C2)C(=O)N(C)[C@@H](CC(C)(C)C)C(=O)N(C)[C@H](C(=O)N(C)C)CC(=O)N1C [PP2196]	9.62	B (a compound having 3 or more and less than 10 is denoted as B)	A (a compound having 10 or more and less than 20 is denoted as A)
CCO[C@@H]1C[C@H]2C(=O)NC3(CCCC3)C(=O)N(C)[C@@H](C3CCCC3)C(=O)N(C)[C@H](C(=O)N(C)C)CC(=O)N(C)[C@@H](CC(C)C)C(=O)N[C@@H]([C@@H](C)CC)C(=O)N(C)CC(=O)N(C)[C@H]3C/C=C\CCN(C3=O)[C@@H](Cc3ccc(C)cc3)C(=O)N(C)CC(=O)N[C@@H](CCc3ccc(C(F)(F)F)c(OC)c3)C(=O)N2C1 [PP2197]	9.82	B (a compound having 3 or more and less than 10 is denoted as B)	A (a compound having 10 or more and less than 20 is denoted as A)
CCC[C@H]1C(=O)N[C@@H](C2CCCC2)C(=O)N(C)CC(=O)N(C)[C@H]2C/C=C\CCN(C2=O)[C@@H](Cc2ccc(C)cc2)C(=O)N(C)CC(=O)N[C@@H](CCc2ccc(C(F)(F)F)c(Cl)c2)C(=O)N2C[C@H](OCC)C[C@H]2C(=O)NC2(CC(C)(C)C2)C(=O)N(C)[C@@H](C2CCCC2)C(=O)N(C)[C@H](C(=O)N(C)C)CC(=O)N1C [PP2198]	9.68	A (a compound having 10 or more and less than 20 is denoted as A)	A (a compound having 10 or more and less than 20 is denoted as A)
CCC[C@H]1C(=O)N[C@@H](C(CC)CC)C(=O)N(C)CC(=O)N(C)[C@H]2C/C=C\CCN(C2=O)[C@@H](Cc2ccc(C)cc2)C(=O)N(C)CC(=O)N[C@@H](CCc2ccc(C(F)(F)F)c(Cl)c2)C(=O)N2C[C@H](OCC)C[C@H]2C(=O)NC2(CC(C)(C)C2)C(=O)N(C)[C@@H](CC(C)(C)C)C(=O)N(C)[C@H](C(=O)N(C)C)CC(=O)N1C [PP2207]	9.10	A (a compound having 10 or more and less than 20 is denoted as A)	A (a compound having 10 or more and less than 20 is denoted as A)
CCC[C@@H]1C[C@H]2C(=O)NC3(CC(C)(C)C3)C(=O)N(C)[C@@H](C3CCCC3)C(=O)N(C)[C@H](C(=O)N(C)C)CC(=O)N(C)[C@@H](CC)C(=O)N[C@@H]([C@@H](C)CC)C(=O)N(C)CC(=O)N(C)[C@H]3C/C=C\CCN(C3=O)[C@@H](Cc3ccc(C)cc3)C(=O)N(C)CC(=O)N[C@@H](CCc3cc(F)c(C(F)(F)F)c(F)c3)C(=O)N2C1 [PP2208]	9.70	A (a compound having 10 or more and less than 20 is denoted as A)	A (a compound having 10 or more and less than 20 is denoted as A)

The next lines start with results.

pKd [2]	SMILES	HRAS/KRAS (ratio of KD value for HRAS to KD value for KRAS) [1]	NRAS/KRAS (ratio of KD value for NRAS to KD value for KRAS) [3]
9.09	CCC[C@H]1C(=O)N[C@@H](C(CC)CC)C(=O)N(C)CC(=O)N(C)[C@H]2C/C=C\CCN(C2=O)[C@@H](Cc2ccc(C)cc2)C(=O)N(C)CC(=O)N[C@@H](CCc2ccc(C(F)(F)F)c(Cl)c2)C(=O)N2C[C@H](OCC)C[C@H]2C(=O)NC2(CC(C)(C)C2)C(=O)N(C)[C@@H](C2CCCC2)C(=O)N(C)[C@H](C(=O)N(C)C)CC(=O)N1C [PP2209]	A (a compound having 10 or more and less than 20 is denoted as A)	A (a compound having 10 or more and less than 20 is denoted as A)
9.47	CCC[C@H]1C(=O)N[C@@H]([C@@H](C)CC)C(=O)N(C)CC(=O)N(C)[C@H]2C/C=C\CCN(C2=O)[C@@H](Cc2ccc(C)cc2)C(=O)N(C)CC(=O)N[C@@H](CCc2ccc(C(F)(F)F)c(Cl)c2)C(=O)N2C[C@H](CC)C[C@H]2C(=O)NC2(CC(C)(C)C2)C(=O)N(C)[C@@H](C2CCCC2)C(=O)N(C)[C@H](C(=O)N(C)C)CC(=O)N1C [PP2212]	B (a compound having 3 or more and less than 10 is denoted as B)	A (a compound having 10 or more and less than 20 is denoted as A)
9.42	CCC[C@H]1C(=O)N[C@@H]([C@@H](C)CC)C(=O)N(C)CC(=O)N(C)[C@H]2C/C=C\CCN(C2=O)[C@@H](Cc2ccc(C)cc2)C(=O)N(C)CC(=O)N[C@@H](CCc2ccc(C(F)(F)F)c(Cl)c2)C(=O)N2C[C@H](OCC)C[C@H]2C(=O)NC2(CC(C)(C)C2)C(=O)N(C)[C@@H](CC(C)C)C(=O)N(C)[C@H](C(=O)N(C)C)CC(=O)N1C [PP2224]	A (a compound having 10 or more and less than 20 is denoted as A)	A (a compound having 10 or more and less than 20 is denoted as A)
9.09	CCC[C@H]1C(=O)N[C@@H]([C@@H](C)CC)C(=O)N(C)CC(=O)N(C)[C@H]2C/C=C\CCN(C2=O)[C@@H](Cc2ccc(C)cc2)C(=O)N(C)CC(=O)N[C@@H](CCc2ccc(C(F)(F)F)c(Cl)c2)C(=O)N2C[C@H](OCC)C[C@H]2C(=O)NC2(CC(C)(C)C2)C(=O)N(C)[C@@H](CC(F)(F)F)C(=O)N(C)[C@H](C(=O)N(C)C)CC(=O)N1C [PP2226]	A (a compound having 10 or more and less than 20 is denoted as A)	A (a compound having 10 or more and less than 20 is denoted as A)
9.42	CCCOC[C@H]1C(=O)N[C@@H]([C@@H](C)CC)C(=O)N(C)CC(=O)N(C)[C@H]2C/C=C\CCN(C2=O)[C@@H](Cc2ccc(C)cc2)C(=O)N(C)CC(=O)N[C@@H](CCc2cc(F)c(C(F)(F)F)c(F)c2)C(=O)N2C[C@H](CCC)C[C@H]2C(=O)NC2(CCCC2)C(=O)N(C)[C@@H](C2CCCC2)C(=O)N(C)[C@H](C(=O)N(C)C)CC(=O)N1C [PP2229]	A (a compound having 10 or more and less than 20 is denoted as A)	A (a compound having 10 or more and less than 20 is denoted as A)
